# Biological target: T1, human apelin receptor (Homo sapiens, UniProt P35414)
# T1 construct: expressed in transfected cells
# T1 sequence (P35414 1-380): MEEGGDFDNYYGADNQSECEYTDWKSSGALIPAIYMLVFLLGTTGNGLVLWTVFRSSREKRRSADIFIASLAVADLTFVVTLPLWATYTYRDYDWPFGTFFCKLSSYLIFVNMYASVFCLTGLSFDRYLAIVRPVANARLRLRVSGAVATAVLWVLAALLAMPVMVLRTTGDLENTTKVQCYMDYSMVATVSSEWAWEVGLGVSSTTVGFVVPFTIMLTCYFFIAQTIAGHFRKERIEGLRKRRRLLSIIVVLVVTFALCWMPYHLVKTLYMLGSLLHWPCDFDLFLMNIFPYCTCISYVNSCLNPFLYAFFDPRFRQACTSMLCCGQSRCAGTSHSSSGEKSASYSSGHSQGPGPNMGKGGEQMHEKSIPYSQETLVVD
# Test: Determination of agonism on the human apelin receptor by a calcium fluorescence assay (FLIPR)
# Type: cell-based
# Details: HEK293 cells stably transfected with human apelin receptor and Giaq protein, Fluo-4 calcium fluorescence, read-out: EC50 (APJ agonism)
# Method in brief: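 HEK293 cells stably co-expressing human apelin receptor and promiscuous Giaq, loaded 1 h at 37 °C with Fluo-4 (4 μM) in probenecid-containing Hepes buffer, pH 7.4. Compounds, at least 7 concentrations in triplicate, added in FLIPR Tetra; peak calcium fluorescence normalized to 1 μM apelin-13 as 100% to derive EC50.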
row,Structure (SMILES),EC50 [nM]
1,"CCC(CC)n1c(Cc2cccs2)nc2cc(C(=O)N[C@@H](CC(C)C)C(=O)NC3CC4CCCC(C3)N4C)ccc21 (stereo partly drawn) [Example 292, 1-(1-Ethyl-propyl)-2-thiophen-2-ylmethyl-1H-benzoimidazole-5-carboxylic acid [(S)-3-methyl-1-(9-methyl-9-aza-bicyclo[3.3.1]non-3-ylcarbamoyl)-butyl]-amide]",1220
2,"CCC(CC)n1c(Cc2cccs2)nc2cc(C(=O)N[C@@H](CC(C)C)C(=O)NC3CCN(c4ccccn4)CC3)ccc21 [Example 293, 1-(1-Ethyl-propyl)-2-thiophen-2-ylmethyl-1H-benzoimidazole-5-carboxylic acid [(S)-3-methyl-1-(3,4,5,6-tetrahydro-2H-[1,2′]bipyridinyl-4-ylcarbamoyl)-butyl]-amide]",2640
3,"CCC(CC)n1c(Cc2cccs2)nc2cc(C(=O)N[C@@H](CC(C)C)C(=O)NCCCN3CC(C)OC(C)C3)ccc21 (stereo partly drawn) [Example 294, 1-(1-Ethyl-propyl)-2-thiophen-2-ylmethyl-1H-benzoimidazole-5-carboxylic acid {(S)-1-[3-(2,6-dimethyl-morpholin-4-yl)-propylcarbamoyl]-3-methyl-butyl}-amide]",722
4,"CCC(CC)n1c(Cc2cccs2)nc2cc(C(=O)N[C@@H](CC(C)C)C(=O)N3CCC(N4CCc5ccccc5C4)CC3)ccc21 [Example 296, 1-(1-Ethyl-propyl)-2-thiophen-2-ylmethyl-1H-benzoimidazole-5-carboxylic acid {(S)-1-[4-(3,4-dihydro-1H-isoquinolin-2-yl)-piperidine-1-carbonyl]-3-methyl-butyl}-amide]",1030
5,"CCC(CC)n1c(Cc2cccs2)nc2cc(C(=O)N[C@@H](CC(C)C)C(=O)N3CCC(N4CCCCC4)C3)ccc21 (stereo partly drawn) [Example 299, 1-(1-Ethyl-propyl)-2-thiophen-2-ylmethyl-1H-benzoimidazole-5-carboxylic acid [(S)-3-methyl-1-(3-piperidin-1-yl-pyrrolidine-1-carbonyl)-butyl]-amide]",776
6,"CCC(CC)n1c(Cc2cccs2)nc2cc(C(=O)N[C@@H](CC(C)C)C(=O)N3CCC(N4CCC(C)CC4)C3)ccc21 (stereo partly drawn) [Example 300, 1-(1-Ethyl-propyl)-2-thiophen-2-ylmethyl-1H-benzoimidazole-5-carboxylic acid {(S)-3-methyl-1-[3-(4-methyl-piperidin-1-yl)-pyrrolidine-1-carbonyl]-butyl}-amide]",732
7,"CCC(CC)n1c(Cc2cccs2)nc2cc(C(=O)N[C@@H](CC(C)C)C(=O)NCC3CCN(CC(C)C)C3)ccc21 (stereo partly drawn) [Example 304, 1-(1-Ethyl-propyl)-2-thiophen-2-ylmethyl-1H-benzoimidazole-5-carboxylic acid {(S)-1-[(1-isobutyl-pyrrolidin-3-ylmethyl)-carbamoyl]-3-methyl-butyl}-amide]",461
8,"CCC(CC)n1c(Cc2cccs2)nc2cc(C(=O)N[C@@H](CC(C)C)C(=O)NCC3CCN(CCOC)C3)ccc21 (stereo partly drawn) [Example 305, 1-(1-Ethyl-propyl)-2-thiophen-2-ylmethyl-1H-benzoimidazole-5-carboxylic acid ((S)-1-{[1-(2-methoxy-ethyl)-pyrrolidin-3-ylmethyl]-carbamoyl}-3-methyl-butyl)-amide]",319
9,"CCC(CC)n1c(Cc2cccs2)nc2cc(C(=O)N[C@@H](CC(C)C)C(=O)NC(C)CCN3CCOCC3)ccc21 (stereo partly drawn) [Example 306, 1-(1-Ethyl-propyl)-2-thiophen-2-ylmethyl-1H-benzoimidazole-5-carboxylic acid [(S)-3-methyl-1-(1-methyl-3-morpholin-4-yl-propylcarbamoyl)-butyl]-amide]",1260
10,"CCC(CC)n1c(Cc2cccs2)nc2cc(C(=O)N[C@@H](CC(C)C)C(=O)N3CCC(N(C)CCN(C)C)CC3)ccc21 [Example 310, 1-(1-Ethyl-propyl)-2-thiophen-2-ylmethyl-1H-benzoimidazole-5-carboxylic acid ((S)-1-{4-[(2-dimethylamino-ethyl)-methyl-amino]-piperidine-1-carbonyl}-3-methyl-butyl)-amide]",162
11,"CCC(CC)n1c(Cc2cccs2)nc2cc(C(=O)N[C@@H](CC(C)C)C(=O)N3CCN(Cc4ccc5c(c4)OCO5)CC3)ccc21 [Example 311, 1-(1-Ethyl-propyl)-2-thiophen-2-ylmethyl-1H-benzoimidazole-5-carboxylic acid [(S)-1-(4-benzo[1,3]dioxol-5-ylmethyl-piperazine-1-carbonyl)-3-methyl-butyl]-amide]",21200
12,"CCC(CC)n1c(Cc2cccs2)nc2cc(C(=O)N[C@@H](CC(C)C)C(=O)N3CCN(c4ccccn4)CC3)ccc21 [Example 312, 1-(1-Ethyl-propyl)-2-thiophen-2-ylmethyl-1H-benzoimidazole-5-carboxylic acid [(S)-3-methyl-1-(4-pyridin-2-yl-piperazine-1-carbonyl)-butyl]-amide]",2960

# Second part, the compound after the results:
row,EC50 [nM],Structure (SMILES)
1,506,"CCC(CC)n1c(Cc2cccs2)nc2cc(C(=O)N[C@@H](CC(C)C)C(=O)NCC3CCN(Cc4ccccc4)C3)ccc21 (stereo partly drawn) [Example 290, 1-(1-Ethyl-propyl)-2-thiophen-2-ylmethyl-1H-benzoimidazole-5-carboxylic acid {(S)-1-[(1-benzyl-pyrrolidin-3-ylmethyl)-carbamoyl]-3-methyl-butyl}-amide]"
2,408,"CCC(CC)n1c(Cc2cccs2)nc2cc(C(=O)N[C@@H](CC(C)C)C(=O)NCC3CCN(CCc4ccccc4)C3)ccc21 (stereo partly drawn) [Example 291, 1-(1-Ethyl-propyl)-2-thiophen-2-ylmethyl-1H-benzoimidazole-5-carboxylic acid {(S)-3-methyl-1-[(1-phenethyl-pyrrolidin-3-ylmethyl)-carbamoyl]-butyl}-amide]"
3,1830,"CCC(CC)n1c(Cc2cccs2)nc2cc(C(=O)N[C@@H](CC(C)C)C(=O)NC3CCN(Cc4ccccn4)CC3)ccc21 [Example 295, 1-(1-Ethyl-propyl)-2-thiophen-2-ylmethyl-1H-benzoimidazole-5-carboxylic acid [(S)-3-methyl-1-(1-pyridin-2-ylmethyl-piperidin-4-ylcarbamoyl)-butyl]-amide]"
4,390,"CCC(CC)n1c(Cc2cccs2)nc2cc(C(=O)N[C@@H](CC(C)C)C(=O)NCC3CCCN(C)C3)ccc21 (stereo partly drawn) [Example 297, 1-(1-Ethyl-propyl)-2-thiophen-2-ylmethyl-1H-benzoimidazole-5-carboxylic acid {(S)-3-methyl-1-[(1-methyl-piperidin-3-ylmethyl)-carbamoyl]-butyl}-amide]"
5,1260,"CCC(CC)n1c(Cc2cccs2)nc2cc(C(=O)N[C@@H](CC(C)C)C(=O)NC3CCN(Cc4ccncc4)CC3)ccc21 [Example 298, 1-(1-Ethyl-propyl)-2-thiophen-2-ylmethyl-1H-benzoimidazole-5-carboxylic acid [(S)-3-methyl-1-(1-pyridin-4-ylmethyl-piperidin-4-ylcarbamoyl)-butyl]-amide]"
6,2460,"CCC(CC)n1c(Cc2cccs2)nc2cc(C(=O)N[C@@H](CC(C)C)C(=O)NC3CCN(Cc4cccc(F)c4)CC3)ccc21 [Example 301, 1-(1-Ethyl-propyl)-2-thiophen-2-ylmethyl-1H-benzoimidazole-5-carboxylic acid {(S)-1-[1-(3-fluoro-benzyl)-piperidin-4-ylcarbamoyl]-3-methyl-butyl}-amide]"
7,386,"CCC(CC)n1c(Cc2cccs2)nc2cc(C(=O)N[C@@H](CC(C)C)C(=O)NCC3CCCN(CCc4ccccc4)C3)ccc21 (stereo partly drawn) [Example 302, 1-(1-Ethyl-propyl)-2-thiophen-2-ylmethyl-1H-benzoimidazole-5-carboxylic acid {(S)-3-methyl-1-[(1-phenethyl-piperidin-3-ylmethyl)-carbamoyl]-butyl}-amide]"
8,214,"CCC(CC)n1c(Cc2cccs2)nc2cc(C(=O)N[C@@H](CC(C)C)C(=O)NCC3CCCN(CC)C3)ccc21 (stereo partly drawn) [Example 303, 1-(1-Ethyl-propyl)-2-thiophen-2-ylmethyl-1H-benzoimidazole-5-carboxylic acid {(S)-1-[(1-ethyl-piperidin-3-ylmethyl)-carbamoyl]-3-methyl-butyl}-amide]"
9,1830,"CCC(CC)n1c(Cc2cccs2)nc2cc(C(=O)N[C@@H](CC(C)C)C(=O)NCCC3CCCCN3Cc3ccccc3)ccc21 (stereo partly drawn) [Example 307, 1-(1-Ethyl-propyl)-2-thiophen-2-ylmethyl-1H-benzoimidazole-5-carboxylic acid {(S)-1-[2-(1-benzyl-piperidin-2-yl)-ethylcarbamoyl]-3-methyl-butyl}-amide]"
10,672,"CCC(CC)n1c(Cc2cccs2)nc2cc(C(=O)N[C@@H](CC(C)C)C(=O)NC3CCN(Cc4cccnc4)CC3)ccc21 [Example 308, 1-(1-Ethyl-propyl)-2-thiophen-2-ylmethyl-1H-benzoimidazole-5-carboxylic acid [(S)-3-methyl-1-(1-pyridin-3-ylmethyl-piperidin-4-ylcarbamoyl)-butyl]-amide]"
11,482,"CCCN1CCCC(CNC(=O)[C@H](CC(C)C)NC(=O)c2ccc3c(c2)nc(Cc2cccs2)n3C(CC)CC)C1 (stereo partly drawn) [Example 309, 1-(1-Ethyl-propyl)-2-thiophen-2-ylmethyl-1H-benzoimidazole-5-carboxylic acid {(S)-3-methyl-1-[(1-propyl-piperidin-3-ylmethyl)-carbamoyl]-butyl}-amide]"
